# From the text: Propofol has limited water solubility, however it is easy to dissolve in soybean oil. As such, it must be incorporated with a solubilizing agent, surfactants or solvents to generate oil-in-water emulsions. The oil component of the emulsion is contained within a shell of the surfactants (egg lecithin), thus forming a “sunflower” structure, which can be seen in Table 1. Currently marketed propofol products are available as oil-in-water emulsions.
smiles,measurement,value
"CC(C)c1cccc(C(C)C)c1O [propofol, 2,6-Diisopropylphenol]",partition coefficient of propofol between soybean oil and water,"4,220"
